Structures can show the parent of a compound that is named as a salt. A value given as a limit tells only on which side of the number the result lay.

For one assay, the target named is αvβ1 (Homo sapiens, UniProt P05556+P06756). The assay can be described thus: Solid Phase Integrin αvβ1 Assay. Type of assay: binding. The essentials:
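Wells coated with 1 µg/mL recombinant TGFb1-LAP and blocked with 2% BSA/TBST, 1 mM MnCl2; αvβ1 (added at 0.2 µg/mL) and compound incubated 90 min at room temperature. Bound integrin detected by streptavidin-HRP (20 min) and TMB after Mn-containing washes; IC50 by four-parameter logistic fit.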

Another assay concerns the target αvβ6 (Homo sapiens, UniProt P06756+P18564). Briefly: Solid Phase Integrin αvβ6 Assay. Type of assay: binding. The essentials: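 Plates coated with 1 μg/mL recombinant TGFb1-LAP; compounds and αvβ6 (0.2 μg/mL diluted stock) incubated 1 h at room temperature in 2% BSA/TBST with 1 mM MnCl2. Bound integrin detected with streptavidin-HRP and TMB; IC50 from four-parameter logistic fits.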

Sequence of αvβ1 (P06756 31-992 limits assumed): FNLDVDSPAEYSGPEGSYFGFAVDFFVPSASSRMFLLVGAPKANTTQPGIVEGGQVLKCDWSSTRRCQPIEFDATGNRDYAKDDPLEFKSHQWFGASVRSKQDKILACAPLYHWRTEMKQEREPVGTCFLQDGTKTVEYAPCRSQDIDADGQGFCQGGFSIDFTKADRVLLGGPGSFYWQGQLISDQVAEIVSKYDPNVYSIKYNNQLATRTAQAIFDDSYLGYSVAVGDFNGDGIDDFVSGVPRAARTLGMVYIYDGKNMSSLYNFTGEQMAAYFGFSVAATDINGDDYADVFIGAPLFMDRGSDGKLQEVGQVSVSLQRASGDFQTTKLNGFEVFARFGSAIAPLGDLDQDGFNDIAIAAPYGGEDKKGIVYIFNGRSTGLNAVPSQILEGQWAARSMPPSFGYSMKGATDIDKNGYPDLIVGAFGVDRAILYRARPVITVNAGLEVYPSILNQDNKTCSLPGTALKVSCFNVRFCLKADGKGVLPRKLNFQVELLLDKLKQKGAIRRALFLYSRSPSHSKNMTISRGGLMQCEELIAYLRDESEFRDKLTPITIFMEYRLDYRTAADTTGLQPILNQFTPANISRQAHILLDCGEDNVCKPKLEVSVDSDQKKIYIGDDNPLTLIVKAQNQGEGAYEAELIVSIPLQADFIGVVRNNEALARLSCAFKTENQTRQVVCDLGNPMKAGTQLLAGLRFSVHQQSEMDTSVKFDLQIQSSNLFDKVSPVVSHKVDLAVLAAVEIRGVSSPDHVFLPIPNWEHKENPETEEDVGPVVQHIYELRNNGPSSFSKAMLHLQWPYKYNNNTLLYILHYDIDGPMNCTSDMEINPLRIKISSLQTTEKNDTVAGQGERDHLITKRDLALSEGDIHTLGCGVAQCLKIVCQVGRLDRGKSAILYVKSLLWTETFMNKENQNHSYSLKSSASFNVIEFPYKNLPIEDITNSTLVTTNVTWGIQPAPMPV
Sequence of αvβ1 (P05556 21-728 limits assumed): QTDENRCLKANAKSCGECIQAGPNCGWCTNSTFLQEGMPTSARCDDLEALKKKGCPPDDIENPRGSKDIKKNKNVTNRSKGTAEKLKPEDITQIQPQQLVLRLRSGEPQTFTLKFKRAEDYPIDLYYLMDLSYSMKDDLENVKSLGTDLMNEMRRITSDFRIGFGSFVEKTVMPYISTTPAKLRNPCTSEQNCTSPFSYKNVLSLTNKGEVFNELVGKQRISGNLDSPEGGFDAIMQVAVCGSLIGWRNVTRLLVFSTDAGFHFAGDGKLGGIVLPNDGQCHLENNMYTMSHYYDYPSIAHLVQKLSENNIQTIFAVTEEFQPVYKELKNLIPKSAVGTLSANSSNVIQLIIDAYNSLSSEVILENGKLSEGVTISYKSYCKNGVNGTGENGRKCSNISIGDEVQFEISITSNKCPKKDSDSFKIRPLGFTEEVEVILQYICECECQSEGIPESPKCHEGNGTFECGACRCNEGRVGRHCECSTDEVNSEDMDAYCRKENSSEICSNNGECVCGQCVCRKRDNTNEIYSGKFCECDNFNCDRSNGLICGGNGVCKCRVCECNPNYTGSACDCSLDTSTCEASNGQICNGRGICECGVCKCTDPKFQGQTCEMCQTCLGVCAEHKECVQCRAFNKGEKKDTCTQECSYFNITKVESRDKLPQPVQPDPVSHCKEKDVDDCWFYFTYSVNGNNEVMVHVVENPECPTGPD
Sequence of αvβ6 (P06756 31-992 limits assumed): as the sequence (P06756 31-992 limits assumed) above
Sequence of αvβ6 (P18564 22-707 limits assumed): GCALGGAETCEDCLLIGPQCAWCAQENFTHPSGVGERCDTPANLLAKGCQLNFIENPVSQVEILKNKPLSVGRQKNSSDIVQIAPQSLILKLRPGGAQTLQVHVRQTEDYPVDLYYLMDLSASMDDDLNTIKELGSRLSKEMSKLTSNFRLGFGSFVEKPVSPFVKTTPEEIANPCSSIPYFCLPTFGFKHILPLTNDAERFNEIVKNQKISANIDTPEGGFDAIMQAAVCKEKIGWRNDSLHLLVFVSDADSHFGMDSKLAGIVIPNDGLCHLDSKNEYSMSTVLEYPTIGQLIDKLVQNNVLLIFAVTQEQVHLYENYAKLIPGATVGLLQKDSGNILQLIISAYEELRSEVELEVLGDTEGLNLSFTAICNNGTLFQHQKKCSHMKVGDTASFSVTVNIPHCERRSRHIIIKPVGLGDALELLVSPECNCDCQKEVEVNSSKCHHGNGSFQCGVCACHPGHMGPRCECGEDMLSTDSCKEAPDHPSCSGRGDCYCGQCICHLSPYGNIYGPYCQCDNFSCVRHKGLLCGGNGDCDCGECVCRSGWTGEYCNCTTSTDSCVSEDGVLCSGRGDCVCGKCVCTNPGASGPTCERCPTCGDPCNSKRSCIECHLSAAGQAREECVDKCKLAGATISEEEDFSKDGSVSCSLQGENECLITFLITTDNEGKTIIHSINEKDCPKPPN

As a reminder, the IC50 is the concentration needed to halve the response being measured. Higher therefore signals a need for much substance. With `O=C(O)CC(NC(=O)[C@@H]1CCCN(CCCc2ccc3c(n2)NCCC3)C1)c1cnn(-c2ccccc2)c1` (stereo partly drawn) [Compound 233, 3-(1-phenyl-1H-pyrazol-4-yl)-3-((R)-1-(3-(5,6,7,8-tetrahydro-1,8-naphthyridin-2-yl)propyl)piperidine-3-carboxamido)propanoic acid hydrochloride], the IC50 against αvβ1 and on αvβ6 was less than 0.1 µM throughout.

`CC1(C)CN(c2cccc([C@H](CC(=O)O)NC(=O)[C@@H]3CCCN(CCCc4ccc5c(n4)NCCC5)C3)c2)CCO1` [Compound 234, (S)-3-(3-(2,2-dimethylmorpholino)phenyl)-3-((R)-1-(3-(5,6,7,8-tetrahydro-1,8-naphthyridin-2-yl)propyl)piperidine-3-carboxamido)propanoic acid]: the IC50 on αvβ1 and against αvβ6 was less than 0.1 µM each time.

Regarding `CC1(C)COCCN1c1cccc([C@H](CC(=O)O)NC(=O)[C@@H]2CCCN(CCCc3ccc4c(n3)NCCC4)C2)c1` [Compound 235, (S)-3-(3-(3,3-dimethylmorpholino)phenyl)-3-((R)-1-(3-(5,6,7,8-tetrahydro-1,8-naphthyridin-2-yl)propyl)piperidine-3-carboxamido)propanoic acid], the IC50 against αvβ1 and against αvβ6 was less than 0.1 µM in each case.

On to `C[C@@H]1CN(c2cccc([C@H](CC(=O)O)NC(=O)[C@@H]3CCCN(CCCc4ccc5c(n4)NCCC5)C3)c2)C[C@H](C)O1` [Compound 236, (S)-3-(3-((2S,6R)-2,6-dimethylmorpholino)phenyl)-3-((R)-1-(3-(5,6,7,8-tetrahydro-1,8-naphthyridin-2-yl)propyl)piperidine-3-carboxamido)propanoic acid], for which the IC50 on αvβ1 and against αvβ6 was less than 0.1 µM throughout.

In the case of `CC1(C)CCN(c2cccc([C@H](CC(=O)O)NC(=O)[C@@H]3CCCN(CCCc4ccc5c(n4)NCCC5)C3)c2)CC1` [Compound 237, (S)-3-(3-(4,4-dimethylpiperidin-1-yl)phenyl)-3-((R)-1-(3-(5,6,7,8-tetrahydro-1,8-naphthyridin-2-yl)propyl)piperidine-3-carboxamido)propanoic acid], the IC50 at αvβ1 and at αvβ6 was less than 0.1 µM in each case.

On to `Cc1ccn(-c2cccc([C@H](CC(=O)O)NC(=O)[C@@H]3CCCN(CCCc4ccc5c(n4)NCCC5)C3)c2)n1` [Compound 238, (S)-3-(3-(3-methyl-1H-pyrazol-1-yl)phenyl)-3-((R)-1-(3-(5,6,7,8-tetrahydro-1,8-naphthyridin-2-yl)propyl)piperidine-3-carboxamido)propanoic acid], for which the concentration for half-maximal inhibition (IC50) against αvβ1 and at αvβ6 was less than 0.1 µM each time.

With `O=C(O)C[C@H](NC(=O)[C@@H]1CCCN(CCCc2ccc3c(n2)NCCC3)C1)c1cccc(N2CCCC2=O)c1` [Compound 239, (S)-3-(3-(2-oxopyrrolidin-1-yl)phenyl)-3-((R)-1-(3-(5,6,7,8-tetrahydro-1,8-naphthyridin-2-yl)propyl)piperidine-3-carboxamido)propanoic acid], the IC50 against αvβ1 and against αvβ6 was less than 0.1 µM in each case.

With `O=C(O)C[C@H](NC(=O)[C@@H]1CCCN(CCCc2ccc3c(n2)NCCC3)C1)c1cccc(-c2ccccc2)c1` [Compound 240, (S)-3-([1,1′-biphenyl]-3-yl)-3-((R)-1-(3-(5,6,7,8-tetrahydro-1,8-naphthyridin-2-yl)propyl)piperidine-3-carboxamido)propanoic acid hydrochloride], the IC50 on αvβ1 and at αvβ6 was less than 0.1 µM throughout.

As to `CC1(C)CN(c2cccc([C@H](CC(=O)O)NC(=O)[C@@H]3CCCN(CCCc4ccc5c(n4)NCCC5)C3)c2)CC(C)(C)O1` [Compound 242, (S)-3-((R)-1-(3-(5,6,7,8-tetrahydro-1,8-naphthyridin-2-yl)propyl)piperidine-3-carboxamido)-3-(3-(2,2,6,6-tetramethylmorpholino)phenyl)propanoic acid], the half-inhibitory concentration (IC50) on αvβ1 and against αvβ6 was less than 0.1 µM throughout.

In the case of `O=C(O)C[C@H](NC(=O)[C@@H]1CCCN(CCCc2ccc3c(n2)NCCC3)C1)c1ccc(F)c(C2CC2)c1` [Compound 244-A, 3-(3-cyclopropyl-4-fluorophenyl)-3-((R)-1-(3-(5,6,7,8-tetrahydro-1,8-naphthyridin-2-yl)propyl)piperidine-3-carboxamido)propanoic acid], the IC50 on αvβ1 and on αvβ6 was less than 0.1 µM each time.

In the case of `O=C(O)C[C@@H](NC(=O)[C@@H]1CCCN(CCCc2ccc3c(n2)NCCC3)C1)c1ccc(F)c(C2CC2)c1` [Compound 244-B, 3-(3-cyclopropyl-4-fluorophenyl)-3-((R)-1-(3-(5,6,7,8-tetrahydro-1,8-naphthyridin-2-yl)propyl)piperidine-3-carboxamido)propanoic acid], the IC50 against αvβ1 and against αvβ6 was less than 0.1 µM each time.

Take `O=C(O)C[C@H](NC(=O)[C@@H]1CCCN(CCCc2ccc3c(n2)NCCC3)C1)c1cc(C2CC2)ccc1F` [Compound 245-A, 3-(5-cyclopropyl-2-fluorophenyl)-3-((R)-1-(3-(5,6,7,8-tetrahydro-1,8-naphthyridin-2-yl)propyl)piperidine-3-carboxamido)propanoic acid]: the IC50 at αvβ1 was 0.1 to 1 µM; at αvβ6, less than 0.1 µM.

As to `O=C(O)C[C@@H](NC(=O)[C@@H]1CCCN(CCCc2ccc3c(n2)NCCC3)C1)c1cc(C2CC2)ccc1F` [Compound 245-B, 3-(5-cyclopropyl-2-fluorophenyl)-3-((R)-1-(3-(5,6,7,8-tetrahydro-1,8-naphthyridin-2-yl)propyl)piperidine-3-carboxamido)propanoic acid], the IC50 on αvβ1 and at αvβ6 was less than 0.1 µM in each case.

Turning to `O=C(NC[C@@H](C(=O)O)c1ccccc1)[C@@H]1CCCN(CCCc2ccc3c(n2)NCCC3)C1` [Compound 246, (S)-2-phenyl-3-((R)-1-(3-(5,6,7,8-tetrahydro-1,8-naphthyridin-2-yl)propyl)piperidine-3-carboxamido)propanoic acid], the IC50 at αvβ1 and at αvβ6 was less than 0.1 µM in each case.

As for `O=C(NC[C@H](C(=O)O)c1ccccc1)[C@@H]1CCCN(CCCc2ccc3c(n2)NCCC3)C1` [Compound 247, (R)-2-phenyl-3-((R)-1-(3-(5,6,7,8-tetrahydro-1,8-naphthyridin-2-yl)propyl)piperidine-3-carboxamido)propanoic acid], the IC50 on αvβ1 and against αvβ6 was less than 0.1 µM in each case.

As to `O=C(NC[C@H](C(=O)O)c1ccc2c(c1)CCCC2)[C@@H]1CCCN(CCCc2ccc3c(n2)NCCC3)C1` [Compound 248-A, 3-((R)-1-(3-(5,6,7,8-tetrahydro-1,8-naphthyridin-2-yl)propyl)piperidine-3-carboxamido)-2-(5,6,7,8-tetrahydronaphthalen-2-yl)propanoic acid], the IC50 on αvβ1 and against αvβ6 was 0.1 to 1 µM in each case.

Take `O=C(NC[C@@H](C(=O)O)c1ccc2c(c1)CCCC2)[C@@H]1CCCN(CCCc2ccc3c(n2)NCCC3)C1` [Compound 248-B, 3-((R)-1-(3-(5,6,7,8-tetrahydro-1,8-naphthyridin-2-yl)propyl)piperidine-3-carboxamido)-2-(5,6,7,8-tetrahydronaphthalen-2-yl)propanoic acid]: the 50% inhibitory concentration (IC50) on αvβ1 and against αvβ6 was less than 0.1 µM in each case.

On to `O=C(NC[C@H](C(=O)O)c1ccc2ccccc2c1)[C@@H]1CCCN(CCCc2ccc3c(n2)NCCC3)C1` [Compound 249-A, 2-(naphthalen-2-yl)-3-((R)-1-(3-(5,6,7,8-tetrahydro-1,8-naphthyridin-2-yl)propyl)piperidine-3-carboxamido)propanoic acid], for which the IC50 on αvβ1 and at αvβ6 was less than 0.1 µM throughout.

Regarding `O=C(NC[C@@H](C(=O)O)c1ccc2ccccc2c1)[C@@H]1CCCN(CCCc2ccc3c(n2)NCCC3)C1` [Compound 249-B, 2-(naphthalen-2-yl)-3-((R)-1-(3-(5,6,7,8-tetrahydro-1,8-naphthyridin-2-yl)propyl)piperidine-3-carboxamido)propanoic acid], the IC50 at αvβ1 and against αvβ6 was less than 0.1 µM throughout.

On to `O=C(NC[C@@H](C(=O)O)c1cccc2ccccc12)[C@@H]1CCCN(CCCc2ccc3c(n2)NCCC3)C1` [Compound 250-A, 2-(naphthalen-1-yl)-3-((R)-1-(3-(5,6,7,8-tetrahydro-1,8-naphthyridin-2-yl)propyl)piperidine-3-carboxamido)propanoic acid], for which the IC50 on αvβ1 and against αvβ6 was less than 0.1 µM each time.

On to `O=C(NC[C@H](C(=O)O)c1cccc2ccccc12)[C@@H]1CCCN(CCCc2ccc3c(n2)NCCC3)C1` [Compound 250-B, 2-(naphthalen-1-yl)-3-((R)-1-(3-(5,6,7,8-tetrahydro-1,8-naphthyridin-2-yl)propyl)piperidine-3-carboxamido)propanoic acid], for which the concentration for half-maximal inhibition (IC50) is 0.1 to 1 µM on αvβ1 and more than 1 µM on αvβ6.

Regarding `O=C(NC[C@@H](C(=O)O)c1cccc(Oc2ccccc2)c1)[C@@H]1CCCN(CCCc2ccc3c(n2)NCCC3)C1` [Compound 251-A], the concentration for half-maximal inhibition (IC50) at αvβ1 and at αvβ6 was 0.1 to 1 µM throughout.

As to `O=C(NC[C@H](C(=O)O)c1cccc(Oc2ccccc2)c1)[C@@H]1CCCN(CCCc2ccc3c(n2)NCCC3)C1` [Compound 251-B], the IC50 against αvβ1 and on αvβ6 was less than 0.1 µM throughout.

For `O=C(NC[C@@H](C(=O)O)c1cccc(C(F)(F)F)c1)[C@@H]1CCCN(CCCc2ccc3c(n2)NCCC3)C1` [Compound 252-A, 3-((R)-1-(3-(5,6,7,8-tetrahydro-1,8-naphthyridin-2-yl)propyl)piperidine-3-carboxamido)-2-(3-(trifluoromethyl)phenyl)propanoic acid], the IC50 on αvβ1 is less than 0.1 µM; against αvβ6 it was 0.1 to 1 µM.

The record behind these values is patent publication US20240208968A1, “ALPHA V BETA 6 AND ALPHA V BETA 1 INTEGRIN INHIBITORS AND USES THEREOF” (DiCE Molecules SV, Inc., priority 2021, published 2024).
